In general, melting point refers to the temperature of the solid-liquid transition.

Consider `CCCN(CCC)C(=O)c1cc(C)cc(C(=O)N[C@@H](Cc2cc(F)cc(F)c2)[C@@H](O)CCN)c1` [Example 1, 5-amino-1,2,4,5-tetradeoxy-1-(3,5-difluorophenyl)-2-({3-[(dipropylamino)carbonyl]-5-methylbenzoyl}amino)-L-threo-pentitol], for which the melting point was 61 to 72 °C.

The record behind these values is patent US7244755B2, “Hydroxypropylamines” (Pharmacia & Upjohn Company, priority 2001, dated 2007).
